This note sets out measurements from paper PMC8208304 (2021).

The test system of assay [1] is FAM-S1 + TAMRA-S2 (DNA, aptamer, internal C12 spacer (iSpC12) after position 11 of strand 1 and after position 16 of strand 2) TGGGTGGGTTTTTTACCTGGGGGAGTAT/TGCGGAGGAAGGTTTTTTTAGGGCGGGT
Description: FRET in LUVs. To be noted: ATP 0-1.0 mM; FAM-S1:TAMRA-S2 1:5; Fa/Fd 0.4 to 0.5.

Assay [2] concerns S1 + S2 (split ATP aptamer / split G-quadruplex receptor) (DNA, aptamer, internal C12 spacer (iSpC12) after position 12 of strand 1 and after position 16 of strand 2) TGGGTGGGTTTTTTTACCTGGGGGAGTAT/TGCGGAGGAAGGTTTTTTTAGGGCGGGT
Description: SYBR Green I fluorescence melting. Particulars: derived from two Tm (46.2 to 55.0 °C); 1.0 mM ATP; 1.0 μM strands; 100 mM Tris-HCl pH 7.4.

The test system is the same in assay [3]. The assay can be described thus: G4-hemin peroxidase activity (Amplex Red) in LUVs. To be noted: ATP 0-1.0 mM; hemin 4 μM; 100 mM Tris-HCl pH 7.0; functional readout.
Assay [4] has the same test system. Description: G4-hemin Amplex Red peroxidase fluorescence in LUVs. To be noted: 100 mM Tris-HCl pH 7.0; functional readout; used instead of ATP; concentration not given.
The test system is the same in assay [5]. Description: ThT fluorescence enhancement at 504 nm. Particulars: 2.2-fold with 1.0 mM ATP; ThT 20 μM; 1.0 μM strands; 100 mM Tris-HCl pH 7.4.

Regarding `Nc1ncnc2c1ncn2[C@@H]1O[C@H](COP(=O)(O)OP(=O)(O)OP(=O)(O)O)[C@@H](O)[C@H]1O`, the binding result in assay [1] was “yes”. The “ΔTm (melting temperature shift)” value in assay [2] was found to be 8.8 °C. For `C=CC1=C(C)C2=Cc3c(C=C)c(C)c4[n]3[Fe]([Cl])[n]3c(c(C)c(CCC(=O)O)c3=CC3=NC(=C4)C(C)=C3CCC(=O)O)=CC1=N2`, the binding entry in assay [3] is recorded as “yes”. Consider `Nc1ccn([C@@H]2O[C@H](CO)[C@@H](O)[C@H]2O)c(=O)n1`, for which the binding entry in assay [4] is given as “no”. Consider `Cc1ccc2c(c1)sc(-c1ccc(N(C)C)cc1)[n+]2C`, for which the binding result in assay [5] was “yes”. Take `O=c1ccn([C@@H]2O[C@H](CO)[C@@H](O)[C@H]2O)c(=O)[nH]1`: the binding result in assay [4] was “no”. On the same count and under the same terms, the entry for `Nc1nc2c(ncn2[C@@H]2O[C@H](CO)[C@@H](O)[C@H]2O)c(=O)[nH]1` is “no”.
